“And” between values parts separate entries of the source, which are not always exact repeats. Identical values can stand only once. Marks after values point to notes of the source that are not given here.
Experiments:
[1] = Frozen (−20° C.) short-term stability in cholestyramine-treated human saliva; conditions: for Concentration QC-LLOQ / Concentration QC-Mid / Concentration QC-High: run 33; for % Bias / Concentration, Mean / Concentration: −20° C.; for Concentration: individual values
Procedure: Quality control samples for the evaluation of accuracy and precision and for run acceptance were prepared on the day of sample extraction. QC samples prepared in cholestyramine-treated saliva are to be prepared in small volumes for analysis. Stability for these QC samples would be limited to short-term storage (i.e., 2 days) whereas untreated human saliva would be evaluated for long-term storage.
For stability in cholestyramine-treated human saliva, samples were prepared by spiking cholestyramine-treated human saliva with each analyte at the QC-LLOQ, QC-Low, QC-Mid and QC-High levels. The samples were stored in a −20° C. freezer. After 1 day and 2 days of storage, each sample was extracted in replicates of four for analysis.

[2] = 1 month
Procedure: (§1) For long-term stability in untreated human saliva, samples were prepared by spiking untreated human saliva with each analyte at the QC-Low and QC-High levels. The samples were stored in a −20° C. freezer and in a −80° C. freezer. After 1 month of storage, each sample was extracted in replicates of three for analysis.
(§2) A 100-μL aliquot of sample (calibration standards, quality controls, blanks, and stability samples) was transferred into a 96 well plate, according to a pre-defined layout. […] The plates were covered, vortex-mixed and then centrifuged for 5 minutes at 3200 rpm. Supernatants (350 μL each) were transferred into the corresponding wells of a clean 96 well plate and evaporated to dryness under nitrogen in a Turbovap set to 40° C. The dried residue in each well was reconstituted with 75 μL of 50:50 (v:v) methanol:water.

[3] = Long-term (1 month at −20° C. and −80° C.) stability in untreated human saliva; conditions: nominal 80.0 ng/mL; for % Bias QC-High / % CV QC-High / Difference from Fresh (%) QC-High / Mean concentration QC-High / Concentration QC-High / Fresh QCs (Batch 34) Mean at Time Zero, QC-High: untreated human saliva; for Concentration QC-High: run 35; for % Bias / Concentration, Mean / Difference from Fresh (%) / Concentration: 1 month; for Concentration: individual values
Procedure: as §1, §2

[4] = 1 Day at −20° C., nominal 0.500 ng/mL
[5] = 1 Day at −20° C., nominal 8.00 ng/mL
[6] = 1 Day at −20° C., nominal 80.0 ng/mL
[7] = 2 Days at −20° C., nominal 0.500 ng/mL
[8] = 2 Days at −20° C., nominal 8.00 ng/mL
[9] = 2 Days at −20° C., nominal 80.0 ng/mL
[10] = 1 Day, QC-High, nominal 80.0 ng/mL
[11] = 1 Day, QC-LLOQ, nominal 0.500 ng/mL
[12] = 1 Day, QC-Mid, nominal 8.00 ng/mL
[13] = 2 Days, QC-High, nominal 80.0 ng/mL
[14] = 2 Days, QC-LLOQ, nominal 0.500 ng/mL
[15] = 2 Days, QC-Mid, nominal 8.00 ng/mL

CC(CCC(=O)NCC(=O)O)C1CCC2C3C(O)CC4CC(O)CCC4(C)C3CCC12C (centres unmarked) [Glycochenodeoxycholic Acid, Glycochenodeoxycholic acid]
% Bias QC-LLOQ [1, 4]: 9.1% | % CV QC-LLOQ [1, 4]: 4.7% | Mean concentration QC-LLOQ [1, 4]: 0.546 ng/mL | Concentration QC-LLOQ [1, 4]: 0.538 ng/mL and 0.551 ng/mL and 0.516 ng/mL and 0.578 ng/mL | % Bias QC-Mid [1, 5]: −2.4% | % CV QC-Mid [1, 5]: 2.4% | Mean concentration QC-Mid [1, 5]: 7.81 ng/mL | Concentration QC-Mid [1, 5]: 7.56 ng/mL and 7.99 ng/mL and 7.92 ng/mL and 7.76 ng/mL | % Bias QC-High [1, 6]: −1.3% | % CV QC-High [1, 6]: 2.2% | Mean concentration QC-High [1, 6]: 78.9 ng/mL | Concentration QC-High [1, 6]: 79.3 ng/mL and 80.9 ng/mL and 76.6 ng/mL and 78.9 ng/mL | % Bias QC-LLOQ [1, 7]: 16.5% | % CV QC-LLOQ [1, 7]: 4.1% | Mean concentration QC-LLOQ [1, 7]: 0.583 ng/mL | Concentration QC-LLOQ [1, 7]: 0.596 ng/mL and 0.597 ng/mL and 0.555 ng/mL and 0.674^a ng/mL | % Bias QC-Mid [1, 8]: 2.1% | % CV QC-Mid [1, 8]: 3.8% | Mean concentration QC-Mid [1, 8]: 8.17 ng/mL | Concentration QC-Mid [1, 8]: 7.71 ng/mL and 8.40 ng/mL and 8.22 ng/mL and 8.33 ng/mL | % Bias QC-High [1, 9]: 0.9% | % CV QC-High [1, 9]: 2.9% | Mean concentration QC-High [1, 9]: 80.8 ng/mL | Concentration QC-High [1, 9]: 78.3 ng/mL and 80.4 ng/mL and 80.3 ng/mL and 84.0 ng/mL | Short-term stability in cholestyramine-treated human saliva [1]: up to 2 days | Stability in Treated Human Saliva [1]: 2 days | Long-term stability in untreated human saliva [2]: up to 1 month | Stability in Untreated Human Saliva [2]: 1 Month | % Bias QC-High ([3]; 1 month −20° C. storage): −4.9% | % CV QC-High ([3]; 1 month −20° C. storage): 2.4% | Difference from Fresh (%) QC-High ([3]; 1 month −20° C. storage): −4.4% | Mean concentration QC-High ([3]; 1 month −20° C. storage): 76.1 ng/mL | Concentration QC-High ([3]; 1 month −20° C. storage): 74.0 ng/mL and 77.4 ng/mL and 76.9 ng/mL | % Bias QC-High ([3]; 1 month −80° C. storage): −3.6% | % CV QC-High ([3]; 1 month −80° C. storage): 5.0% | Difference from Fresh (%) QC-High ([3]; 1 month −80° C. storage): −3.1% | Mean concentration QC-High ([3]; 1 month −80° C. storage): 77.1 ng/mL | Concentration QC-High ([3]; 1 month −80° C. storage): 80.6 ng/mL and 77.8 ng/mL and 73.0 ng/mL | Fresh QCs (Batch 34) Mean at Time Zero, QC-High ([3]; reference for −20° C. storage): 79.6 ng/mL | Fresh QCs (Batch 34) Mean at Time Zero, QC-High ([3]; reference for −80° C. storage): 79.6 ng/mL

CC(CCC(=O)NCC(=O)O)C1CCC2C3CCC4CC(O)CCC4(C)C3CC(O)C12C (centres unmarked) [Glycodeoxycholic Acid, Glycodeoxycholic acid]
Short-term stability in cholestyramine-treated human saliva [1]: up to 2 days | Stability in Treated Human Saliva [1]: 2 days | % Bias [1, 10]: −5.0% | Concentration, Mean [1, 10]: 76.0 ng/mL | Concentration [1, 10]: 76.0 ng/mL and 78.9 ng/mL and 73.6 ng/mL and 75.5 ng/mL | % Bias [1, 11]: −1.1% | Concentration, Mean [1, 11]: 0.495 ng/mL | Concentration [1, 11]: 0.500 ng/mL and 0.472 ng/mL and 0.488 ng/mL and 0.519 ng/mL | % Bias [1, 12]: −5.0% | Concentration, Mean [1, 12]: 7.60 ng/mL | Concentration [1, 12]: 7.43 ng/mL and 8.14 ng/mL and 7.61 ng/mL and 7.21 ng/mL | % Bias [1, 13]: −6.1% | Concentration, Mean [1, 13]: 75.2 ng/mL | Concentration [1, 13]: 74.0 ng/mL and 73.3 ng/mL and 75.6 ng/mL and 77.7 ng/mL | % Bias [1, 14]: 15.0% | Concentration, Mean [1, 14]: 0.575 ng/mL | Concentration [1, 14]: 0.654^a ng/mL and 0.589 ng/mL and 0.551 ng/mL and 0.599 ng/mL | % Bias [1, 15]: 2.5% | Concentration, Mean [1, 15]: 8.20 ng/mL | Concentration [1, 15]: 7.91 ng/mL and 7.87 ng/mL and 8.54 ng/mL and 8.49 ng/mL | Long-term stability in untreated human saliva [2]: up to 1 month | Stability in Untreated Human Saliva [2]: 1 Month | % Bias ([3]; −20° C. Storage, QC-High): −3.9% | Concentration, Mean ([3]; −20° C. Storage, QC-High): 76.9 ng/mL | Difference from Fresh (%) ([3]; −20° C. Storage, QC-High): 0.7% | Concentration ([3]; −20° C. Storage, QC-High): 75.5 ng/mL and 75.9 ng/mL and 79.2 ng/mL | % Bias ([3]; −80° C. Storage, QC-High): −0.1% | Concentration, Mean ([3]; −80° C. Storage, QC-High): 79.9 ng/mL | Difference from Fresh (%) ([3]; −80° C. Storage, QC-High): 4.7% | Concentration ([3]; −80° C. Storage, QC-High): 81.9 ng/mL and 80.0 ng/mL and 77.8 ng/mL | Fresh QCs (Batch 34) Mean at Time Zero ([3]; QC-High): 76.3 ng/mL

— patent US20200138854A1, “Method of Detecting and Quantifying Bile Acid from Saliva” (Ironwood Pharmaceuticals, Inc., priority 2017, published 2020)
